# “Also recorded” adds a separate entry of the source. Read-outs that look alike come from different tables or passages of the source.
# Tests used:
# NF-κB = NF-κB activation / DNA-binding activity by EMSA in stimulated HeLa cells; assay type: cell-based, human; details: for effect on NF-κB activation: HeLa cells stimulated with TNFα (PGA1: IL-1 or TNFα); for IC50: Homo sapiens, HeLa cells
# Protocol: (§1) Cells used in the experiments described herein were cultured in either RPMI 1640 (Jurkat cells) or DMEM (HeLa and COS cells), supplemented with 10% FBS and antibiotics. Cells were stimulated with either 25 ng/ml TPA, 20 ng/ml recombinant TNFα, or 10 ng/ml interleukin 1β (Sigma). PGA1, 15dPGJ2, T×B2, LTB4, AA and other PGs (Cayman) dissolved in ethanol were used as well, as known in the art (See e.g., Rossi et al., 94:746-750 [1997]). Controls received equal amounts of ethanol. Transfections were performed using Lipofectamine Plus (GIBCO) for HeLa and COS cells and DEAE-dextran (Sigma) for Jurkat cells. Xpress-tagged NIK, Xpress-tagged MEKK1, HA-tagged IKKα, and HA-tagged IKKβ were also used (See e.g., Zandi et al., Science 281:1360-1363 [1998]; and Delhase et al., Science 284:309-313 [1999]). COX2 and cPLA2 expression vectors were obtained from Dr. L. Feng (See also, Hirose et al., J. Am. Soc. Nephrol., 9:408-416 [1998]). PGD synthase was cloned from HT29 colon carcinoma cell line cDNA by PCR and subcloned into a pCDNA3 vector. Cells were lysed in buffer B (50 mM Tris-HCl, pH 7.5, 400 mM NaCl, 1 mM EDTA, 1 mM EGTA, 1% Triton, 0.5% NP-40, 10% glycerol, and supplemented with 20 mM β-glycerophosphate, 10 mM PNPP, […] 1 mM PMSF, 20 μg/ml aprotinin, 2.5 μg/ml leupeptin, 8.3 μg/ml bestatin, 1.7 μg/ml pepstatin, and 2 mM DTT).
# Aliquots of total extracts (15 μg protein) in buffer B were incubated with a ^32P-labeled κB DNA, followed by analysis of DNA-binding activities by EMSA on 4% PAGE gels, as known in the art (See, Rossi et al., supra). Specificity of protein-DNA complexes was verified by supershift with polyclonal antibodies specific for p65 (Rel A).
# Sp1 = molecular target: T1, Sp1 (Homo sapiens, UniProt P08047); test: Sp1 DNA binding activity; assay type: cell-based
# T1 construct: endogenous in cells; host or cells: Jurkat (PGA1); cells of the 15dPGJ2 experiment not clearly stated
# T1 sequence (P08047 whole entry): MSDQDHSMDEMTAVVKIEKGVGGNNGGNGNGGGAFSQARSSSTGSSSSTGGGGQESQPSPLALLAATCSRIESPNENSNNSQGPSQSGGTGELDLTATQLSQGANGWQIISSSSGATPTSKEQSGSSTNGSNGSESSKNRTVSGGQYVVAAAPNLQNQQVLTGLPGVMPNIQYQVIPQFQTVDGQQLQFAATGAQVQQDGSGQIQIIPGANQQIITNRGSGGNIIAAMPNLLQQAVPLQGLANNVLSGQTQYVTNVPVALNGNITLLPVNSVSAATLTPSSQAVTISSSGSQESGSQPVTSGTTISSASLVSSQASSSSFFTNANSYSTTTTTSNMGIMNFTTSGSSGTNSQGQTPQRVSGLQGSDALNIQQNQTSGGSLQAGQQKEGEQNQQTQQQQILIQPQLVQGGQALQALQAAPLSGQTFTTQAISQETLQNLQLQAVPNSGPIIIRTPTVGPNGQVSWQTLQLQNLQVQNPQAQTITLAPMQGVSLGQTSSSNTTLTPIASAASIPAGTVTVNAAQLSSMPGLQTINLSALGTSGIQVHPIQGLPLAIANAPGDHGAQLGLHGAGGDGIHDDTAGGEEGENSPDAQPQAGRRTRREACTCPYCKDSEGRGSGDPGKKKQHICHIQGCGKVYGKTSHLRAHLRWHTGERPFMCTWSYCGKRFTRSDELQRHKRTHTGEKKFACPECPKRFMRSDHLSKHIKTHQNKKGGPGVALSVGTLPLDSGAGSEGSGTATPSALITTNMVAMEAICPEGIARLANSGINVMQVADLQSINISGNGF
# IKK = IKK (Homo sapiens, UniProt O14920+O15111); test: Endogenous IKK activity (kinase assay) in treated, stimulated HeLa cells; assay type: cell-based; parameters: Endogenous IKK was immunoprecipitated from TNFα-stimulated HeLa cells; endogenous in cells; host or cells: HeLa; details: for effect on IKK activity: HeLa cells stimulated with TNFα (PGA1: IL-1 or TNFα)
# Chain of IKK (O14920 whole entry): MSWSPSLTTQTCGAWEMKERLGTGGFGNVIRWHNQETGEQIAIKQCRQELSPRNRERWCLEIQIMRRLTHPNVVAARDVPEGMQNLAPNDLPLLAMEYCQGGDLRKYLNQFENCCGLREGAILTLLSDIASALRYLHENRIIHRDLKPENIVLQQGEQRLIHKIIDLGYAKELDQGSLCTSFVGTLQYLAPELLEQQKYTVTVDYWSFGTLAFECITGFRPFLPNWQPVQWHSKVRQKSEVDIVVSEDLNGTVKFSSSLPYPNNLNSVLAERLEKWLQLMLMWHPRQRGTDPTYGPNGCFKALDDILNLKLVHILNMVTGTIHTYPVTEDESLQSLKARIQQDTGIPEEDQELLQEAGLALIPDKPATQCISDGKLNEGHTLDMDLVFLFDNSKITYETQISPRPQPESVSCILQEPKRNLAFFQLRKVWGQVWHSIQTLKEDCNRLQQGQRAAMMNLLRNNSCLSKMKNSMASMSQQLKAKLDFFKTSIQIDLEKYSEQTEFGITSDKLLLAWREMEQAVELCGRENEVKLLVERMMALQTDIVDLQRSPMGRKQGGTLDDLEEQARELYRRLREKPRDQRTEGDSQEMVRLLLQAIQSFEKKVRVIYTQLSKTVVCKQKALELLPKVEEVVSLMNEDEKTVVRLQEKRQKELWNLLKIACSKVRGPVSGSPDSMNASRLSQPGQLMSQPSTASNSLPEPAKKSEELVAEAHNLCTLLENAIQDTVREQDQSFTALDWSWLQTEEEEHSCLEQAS
# Chain of IKK (O15111 whole entry): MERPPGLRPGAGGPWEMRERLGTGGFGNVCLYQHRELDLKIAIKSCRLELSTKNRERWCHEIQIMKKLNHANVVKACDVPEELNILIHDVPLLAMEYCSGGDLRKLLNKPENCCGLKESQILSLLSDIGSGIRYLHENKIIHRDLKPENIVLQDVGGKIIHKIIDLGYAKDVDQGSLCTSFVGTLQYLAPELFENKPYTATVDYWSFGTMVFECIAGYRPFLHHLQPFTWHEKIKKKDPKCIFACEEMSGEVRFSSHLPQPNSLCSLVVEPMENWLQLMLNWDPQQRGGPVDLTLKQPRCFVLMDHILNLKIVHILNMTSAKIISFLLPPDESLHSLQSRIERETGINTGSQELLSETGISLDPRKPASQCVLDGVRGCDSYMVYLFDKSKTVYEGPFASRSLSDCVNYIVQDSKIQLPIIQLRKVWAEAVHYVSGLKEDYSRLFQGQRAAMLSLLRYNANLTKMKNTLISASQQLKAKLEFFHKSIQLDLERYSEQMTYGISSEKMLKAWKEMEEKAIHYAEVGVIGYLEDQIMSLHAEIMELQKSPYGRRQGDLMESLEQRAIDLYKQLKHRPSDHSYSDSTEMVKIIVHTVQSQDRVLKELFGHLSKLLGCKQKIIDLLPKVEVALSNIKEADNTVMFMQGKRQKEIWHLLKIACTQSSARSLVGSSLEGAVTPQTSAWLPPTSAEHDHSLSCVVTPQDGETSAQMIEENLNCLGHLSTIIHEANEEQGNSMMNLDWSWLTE
# Chain of IKK (Q9Y6K9 whole entry partner): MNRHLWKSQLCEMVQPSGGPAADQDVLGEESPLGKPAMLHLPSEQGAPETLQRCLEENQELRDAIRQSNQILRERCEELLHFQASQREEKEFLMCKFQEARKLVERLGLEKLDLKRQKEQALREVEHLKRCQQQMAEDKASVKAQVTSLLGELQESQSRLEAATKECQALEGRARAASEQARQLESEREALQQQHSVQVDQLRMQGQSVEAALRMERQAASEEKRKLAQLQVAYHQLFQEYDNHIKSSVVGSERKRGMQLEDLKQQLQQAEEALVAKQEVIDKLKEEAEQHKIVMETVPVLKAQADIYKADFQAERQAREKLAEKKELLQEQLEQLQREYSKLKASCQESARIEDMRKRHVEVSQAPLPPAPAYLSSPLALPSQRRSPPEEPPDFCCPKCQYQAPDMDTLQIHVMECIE
# Protocol: as §1
# Cell lysates were incubated with anti-IKKα (Pharmingen), anti-HA (12CA5; Pharmingen), anti-JNK1 (333.8; Pharmingen), or anti-p38 (New England Biolabs) for 2 hours. Then, 15 μl protein A-Sepharose (Sigma) were added and the mixture was allowed to incubate for 1 hour. After extensive washing, kinase assays were performed as known in the art (See e.g., DiDonato et al., Nature 388:548-554 [1997]). Endogenous IKK, HA-tagged IKKα, endogenous JNK1, and p38 activities were determined with GST-1κBα(1-54), GST-c-Jun(1-79), and GST-ATF2 as substrates.
# In this Example, experiments to determined the effects of arachidonic acid and its metabolites on IKK activity in vivo and in vitro are described. HeLa cells were treated with 50 μM AA, PGA1, PGB2, PGD2, PGE1, PGE2, PGF1α, or thromboxane B2 (T×B2), 1 μM LTB4, or 5 μM 15dPGJ2, for 2 hours in RPMI containing 10% FCS, and stimulated with TNFα for 10 minutes. Cell lysates were then assayed for endogenous IKK activity and recovery. In this FIGURE, “control” indicates unstimulated cells, and “-” indicates treatment with diluent alone. In addition, IKK was immunoprecipitated from TNFα-stimulated HeLA cells and incubated in vitro with 100 μM AA, PGA1, PGB2, PGD2, PGE1, PGE2, PGF1α, or T×B2, 2 μM LTB4 or 10 μM 15dPGJ2, followed by kinase assay and immunoblot analysis. In this FIGURE, “control” indicates to unstimulated cells, and “-”indicates 1% ethanol.
# IKKβ(C179A) = molecular target: T2, IKKβ(C179A) (Homo sapiens, UniProt O14920, C179A); test: Recombinant IKKβ(C179A) (Sf9) kinase activity; assay type: biochemical; parameters: FLAG; made in house; host or cells: Sf9 (baculovirus); details: FIG. 6D; PGA1 data not shown
# T2 sequence (O14920 1-756 C179A): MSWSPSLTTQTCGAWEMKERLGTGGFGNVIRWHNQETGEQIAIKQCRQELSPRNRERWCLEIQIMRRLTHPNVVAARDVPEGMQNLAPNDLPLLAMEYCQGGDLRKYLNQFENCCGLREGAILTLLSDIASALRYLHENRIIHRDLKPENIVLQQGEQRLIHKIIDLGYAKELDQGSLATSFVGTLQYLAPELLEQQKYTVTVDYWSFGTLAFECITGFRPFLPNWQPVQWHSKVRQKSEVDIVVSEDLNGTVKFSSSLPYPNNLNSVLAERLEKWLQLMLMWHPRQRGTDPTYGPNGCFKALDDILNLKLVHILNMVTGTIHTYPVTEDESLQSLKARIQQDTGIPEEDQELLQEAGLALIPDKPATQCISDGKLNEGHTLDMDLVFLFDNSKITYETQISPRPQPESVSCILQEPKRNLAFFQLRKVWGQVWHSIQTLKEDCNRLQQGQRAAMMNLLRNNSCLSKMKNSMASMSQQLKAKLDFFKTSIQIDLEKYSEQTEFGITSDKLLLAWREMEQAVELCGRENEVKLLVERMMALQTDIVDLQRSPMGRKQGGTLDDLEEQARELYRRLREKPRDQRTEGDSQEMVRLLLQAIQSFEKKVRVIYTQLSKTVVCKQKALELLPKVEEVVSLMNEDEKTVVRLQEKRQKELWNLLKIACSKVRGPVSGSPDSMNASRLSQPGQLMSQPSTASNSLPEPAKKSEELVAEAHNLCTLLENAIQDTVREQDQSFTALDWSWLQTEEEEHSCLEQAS
# Protocol: In addition, recombinant IKKβ was expressed in Sf9 cells and purified as described (Zandi et al., supra). AA, PGs, LTB4, and T×B2 were added to washed imnmunoprecipitates of recombinant IKKβ in kinase buffer to a final volume of 500 μl. After 1.5 hours at 4° C., the immunoprecipitates were washed and the kinase activity determined. Western blot analysis was also performed as known in the art (See e.g., Rossi et al., supra).
"IC50 (NF-κB; TNFα, read-out: IC50 for inhibition of NF-κB DNA binding activity)","IC50 (NF-κB; TNFα, read-out: IC50 for inhibition of NF-κB DNA-binding activity)","effect on Sp1 DNA-binding activity (Sp1; 15dPGJ2, data not shown)",effect on IKK activity (IKK),"IC50 (IKK; HeLa cells, TNFα, read-out: half-maximal inhibition of IKK activity)",sensitivity of recombinant IKKβ(C179A) (IKKβ(C179A)),IC50 (NF-κB; read-out: IC50 towards NF-κB),IC50 (NF-κB; read-out: half-maximal inhibition towards NF-κB),SMILES,effect on NF-κB activation (NF-κB),"effect on Sp1 DNA binding (Sp1; PGA1 (120 μM), FIG. 1A)"
2.25 µM,2.25 µM,did not inhibit,inhibited,5.08 µM,resistant,–,–,"CCCCC/C=C/C=C1/C(=O)C=C[C@@H]1C/C=C\CCCC(=O)O [15dPGJ2, 15-deoxy-Δ^12-14-PGJ2]",inhibited,–
–,–,–,inhibited,–,resistant,65 µM,65 µM,"CCCCC[C@H](O)/C=C/[C@H]1C=CC(=O)C1CCCCCCC(=O)O (stereo partly shown) [PGA1, prostaglandin A1]",prevented,did not inhibit; also recorded: No effects
